Results: patent US20260234164A1, “BIPHENYL COMPOUND AS IMMUNOMODULATOR, PREPARATION METHOD THEREFOR AND USE THEREOF” (SHENZHEN CHIPSCREEN BIOSCIENCES CO., LTD., priority 2021, published 2026)

Each compound was assayed on PD-1/PD-L1-mediated T cell activation inhibitory signal (assay: CHO-PD-L1-CD3L / Jurkat-PD-1-NFAT co-culture luciferase reporter assay). Conditions: Homo sapiens, co-culture 6 h, read-out: EC50 blocking PD-1/PD-L1-mediated T cell activation inhibitory signal.
Type: cell-based
Method: In order to detect the effect of the interaction between PD-1 and PD-L1 on T cell activation signals in the immune response, CHO-PD-L1-CD3L cells stably expressing human PD-L1 molecules and anti-CD3 single-chain antibody (ScFv) and Jurkat-PD-1-NFAT cells stably expressing human PD-1 molecule and NFAT reporter gene were constructed. When the two kinds of cells were co-incubated, the binding of anti-CD3ScFv on the surface of CHO cells and the membrane CD3 molecules of Jurkat cells would transmit an activation signal to Jurkat cells, but simultaneously, the binding of PD-L1 on the surface of CHO cells and PD-1 molecules on the surface of Jurkat cells would transmit an inhibitory signal inward to prevent expression of the luciferase reporter gene. When immune checkpoint antibodies or small molecule inhibitors were added, the binding of PD-1 and PD-L1 was blocked, the NFAT pathway activated by T cell activation signal mediated by cross-linking of CD3ScFv antibody and CD3 was no longer affected by the inhibitory signal, and the downstream luciferase reporter gene started to be expressed. A chemiluminescent signal proportional to reporter gene activation was detected by adding a catalytic substrate.
CHO-PD-L1-CD3L cells expressing human PD-L1 molecule and anti-CD3 single-chain antibody (ScFv) and Jurkat-PD-1-NFAT cells stably expressing human PD-1 molecule and NFAT reporter gene were independently constructed and provided by Dr. Chen Bo (KeyMed Bioscience (Chengdu) Co., Ltd.). Puromycin (Cat #540411) and Hygromycin B (Cat #V900372) for stable culture of transfected cells were purchased from Sigma, PMA (Cat #P1585) was purchased from Sigma, anti-human PD-L1 antibody (Cat #GMP-A066) was purchased from Novoprotein Company. Luciferase substrate solution (Cat #E6485) and luciferase-specific cell lysis solution 5× (Cat #E1531) were purchased from Promega. Fluorescence detection instrument Tecan (Spark 10M) was purchased from Switzerland Tecan Company.
(1) The day before the experiment, 100 μL of CHO-PD-L1-CD3L cells were inoculated in each well of a 96-well cell culture plate (about 4×10^4 cells/well) with a medium of DMEM/F12 containing 10% FBS, 8 μg/mL puromycin and 200 μg/mL hygromycin B, and cultured overnight at 37° C.
(2) The test compounds were diluted with 0.1% PBST into different concentration gradients, added into 96-well plates, and pre-incubated for 30 min. Jurkat-PD-1-NFAT cell count was adjusted to 2×10^5 cells/mL with the RPMI 1640 complete medium containing 10% FBS, […]8 μg/mL puromycin and 200 μg/mL hygromycin B. 100 ng/mL PMA (the stock solution was prepared with DMSO to a concentration of 10 mg/mL) was added to amplify T cell activation signal. 100 μL of the above Jurkat-PD-1-NFAT cells was added to each well of the 96-well plate for co-culture.
(3) When detecting the reaction, a control group was provided, including a solvent control without adding test compounds and a positive control with addition of anti-human PD-1 antibody as the experimental system. All detections were performed with duplicates.
(4) After continuous incubation at 37° C. for 6 h, 40 μL of 5× cell lysate was directly added, and mixed well. The plate was placed at room temperature for 10 min to completely lyse the cells. 50 μL of the lysed cell solution was transferred to a fluorescence detection plate, and added with 30 μL of luciferase substrate solution. The chemiluminescence detection program on the fluorescence detector was immediately selected for detection.
(5) The inhibition rate of T cell activation signal at the cellular level of the test compounds was calculated as follows: Inhibition rate of T cell activation signal (%)=(the original value of chemiluminescence in the detection well−solvent control)/(the highest original value of chemiluminescence detected in the compound detection well−solvent control)×100%. […]

Compound | EC50
[2H]C([2H])([2H])n1c(C(=O)Nc2cccc(-c3cccc(NC(=O)c4nc5c(n4C([2H])([2H])[2H])CCN(CCC46CCC(C(=O)O)(CC4)C6)C5)c3Cl)c2C)nc2c1CCN(CCC13CCC(COC)(CC1)C3)C2 [Compound I-10, 4-(2-(2-((2-chloro-3′-(5-(2-(4-(methoxymethyl)bicyclo[2.2.1]heptane-1-yl)ethyl)-1-(methyl-d3)-4,5,6,7-tetrahydro-1H-imidazo[4,5-c]pyridine-2-carboxamido)-2′-methyl-[1,1′-biphenyl]-3-yl)carbamoyl)-1-(methyl-d3)-1,4,6,7-tetrahydro-5H-imidazo[4,5-c]pyridin-5-yl)ethyl)bicyclo[2.2.1]heptane-1-carboxylic acid] | 29.9 nM
[2H]C([2H])([2H])OCC12CCC(CCN3CCc4c(nc(C(=O)Nc5cccc(-c6cccc(NC(=O)c7nc8c(n7C([2H])([2H])[2H])CCN(CCC79CCC(C(=O)O)(CC7)C9)C8)c6C)c5Cl)n4C([2H])([2H])[2H])C3)(CC1)C2 [Compound I-11, 4-(2-(2-((2′-chloro-3′-(5-(2-(4-((methoxy-d3)methyl)bicyclo[2.2.1]heptane-1-yl)ethyl)-1-(methyl-d3)-4,5,6,7-tetrahydro-1H-imidazo[4,5-c]pyridine-2-carboxamido)-2-methyl-[1,1′-biphenyl]-3-yl)carbamoyl)-1-(methyl-d3)-1,4,6,7-tetrahydro-5H-imidazo[4,5-c]pyridin-5-yl)ethyl)bicyclo[2.2.1]heptane-1-carboxylic acid] | 58.4 nM
[2H]C([2H])([2H])n1c(C(=O)Nc2cccc(-c3cccc(NC(=O)c4nc5c(n4C([2H])([2H])[2H])CCN(CCC46CCC(COC)(CC4)C6)C5)c3Cl)c2C)nc2c1CCN(CCC13CCC(C(=O)O)(CC1)C3)C2 [Compound I-12, 4-(2-(2-((2′-chloro-3′-(5-(2-(4-(methoxymethyl)bicyclo[2.2.1]heptane-1-yl)ethyl)-1-(methyl-d3)-4,5,6,7-tetrahydro-1H-imidazo[4,5-c]pyridine-2-carboxamido)-2-methyl-[1,1′-biphenyl]-3-yl)carbamoyl)-1-(methyl-d3)-1,4,6,7-tetrahydro-5H-imidazo[4,5-c]pyridin-5-yl)ethyl)bicyclo [2.2.1]heptane-1-carboxylic acid] | 47.9 nM
[2H]c1c([2H])c(NC(=O)c2nc3c(n2C([2H])([2H])[2H])CCN(CCC24CCC(COC([2H])([2H])[2H])(CC2)C4)C3)c(Cl)c(-c2c([2H])c([2H])c([2H])c(NC(=O)c3nc4c(n3C([2H])([2H])[2H])CCN(CCC35CCC(C(=O)O)(CC3)C5)C4)c2Cl)c1[2H] [Compound I-13, 4-(2-(2-((2,2′-dichloro-3′-(5-(2-(4-((methoxy-d3)methyl)bicyclo[2.2.1]heptane-1-yl)ethyl)-1-(methyl-d3)-4,5,6,7-tetrahydro-1H-imidazo[4,5-c]pyridine-2-carboxamido)-[1,1′-biphenyl]-3-yl-4,4′, 5,5′,6,6′-d6)carbamoyl)-1-(methyl-d3)-1,4,6,7-tetrahydro-5H-imidazo[4,5-c]pyridin-5-yl)ethyl)bicyclo[2.2.1]heptane-1-carboxylic acid] | 26.2 nM
